{
  "source": "patent US20210293788A1",
  "about": "“METHOD FOR IDENTIFYING A CHEMICAL COMPOUND OR AGENT INDUCING UBIQUITINATION OF A PROTEIN OF INTEREST” (CeMM - Forschungszentrum fur Molekulare Medizin GmbH, priority 2018, published 2021)",
  "key": {"KBM7 cells": {"test_system": "KBM7 cells", "assay": "Dose-ranging cellular viability assays in neddylation-impaired isogenic KBM7 cells", "type": "cell-based, human", "settings": "for Cytotoxic activity / sensitivity in COPS8- or CAND1-modified cells: KBM7 cells modified in COPS8 or CAND1 versus non-modified control", "method": "KBM7 cells mutated for five core genes were isolated and the underlying CRISPR-induced mutations were truncations leading to full knockouts (CAND1) or hypomorphic alleles (UBE2M, COPS8, COPS7B, GPS1). […] The observable shift in efficacy was at least 10-fold and up to 1000-fold, thus providing excellent signal to noise ratios. In sum, neddylation-impaired (NEDD^mut) cell line can be applied to find novel, yet uncharacterized MGs.\nThis is further exemplified when said cells are treated with the compound CC-885 (a molecular glue that reprograms the substrate receptor cereblon/CRBN to degrade GSPT1), or the PROTAC® compound THAL-SNS-032 (known to reprogram the substrate receptor cereblon/CRBN to degrade the cyclin dependent kinase 9, CDK9) (both see appended FIG. 22).\nHowever, not for every cullin RING ligase (CRL), modifications of the COP9 signalosome subunit 8 (COPS8) or CAND1 (Cullin-associated NEDD8-dissociated protein 1; a substrate receptor exchange factor) lead to an ensuing destabilization via auto-degradation. An example for this is the substrate receptor VHL(von-Hippel-Lindau), which is part of the CRL2^VHL ligase complex. […] Therefore, measuring differential sensitivity of cells manipulated to contain altered neddylation states to a molecular glue/PROTAC® compound is a feasible surrogate to measure whether the substrate receptor that is reprogrammed by said molecular glue/PROTAC® undergoes destabilization/auto-degradation upon altering the neddylation states."}, "CRBN [1]": {"test_system": "CRBN", "assay": "CRBN levels by western blot after CSN5i-3 treatment (autodegradation)", "type": "cell-based, human", "text": "As a first approach, the levels of cereblon (CRBN), the SR of the CRL4^CRBN E3 ligase machinery, were checked by western blot (WB) in the mutant backgrounds. A strong decrease in CRBN levels in the COPS8 (COP9 signalosome complex subunit 8)-mutant cells was observed, and a less prominent downregulation in the CAND1-deficient cells (FIG. 1B). […] The CSN-impaired condition was used as a focus as this condition was sought to chemically mimic the genetic mutants. […] CRBN destabilization following CSN5i-3 treatment were rescued in CUL4A-deficient cells (FIG. 1E) or in cells lacking UBE2G1 (ubiquitin-conjugating enzyme E2 G1), a E2 ubiquitin-conjugating enzyme previously related to target degradation via the CRL4^CRBN ligase (FIG. 1F)."}, "DCAF15": {"target": "T1, DCAF15 (Homo sapiens, UniProt Q66K64)", "T1 construct": "expressed in transfected cells", "T1 sequence (Q66K64 whole entry)": "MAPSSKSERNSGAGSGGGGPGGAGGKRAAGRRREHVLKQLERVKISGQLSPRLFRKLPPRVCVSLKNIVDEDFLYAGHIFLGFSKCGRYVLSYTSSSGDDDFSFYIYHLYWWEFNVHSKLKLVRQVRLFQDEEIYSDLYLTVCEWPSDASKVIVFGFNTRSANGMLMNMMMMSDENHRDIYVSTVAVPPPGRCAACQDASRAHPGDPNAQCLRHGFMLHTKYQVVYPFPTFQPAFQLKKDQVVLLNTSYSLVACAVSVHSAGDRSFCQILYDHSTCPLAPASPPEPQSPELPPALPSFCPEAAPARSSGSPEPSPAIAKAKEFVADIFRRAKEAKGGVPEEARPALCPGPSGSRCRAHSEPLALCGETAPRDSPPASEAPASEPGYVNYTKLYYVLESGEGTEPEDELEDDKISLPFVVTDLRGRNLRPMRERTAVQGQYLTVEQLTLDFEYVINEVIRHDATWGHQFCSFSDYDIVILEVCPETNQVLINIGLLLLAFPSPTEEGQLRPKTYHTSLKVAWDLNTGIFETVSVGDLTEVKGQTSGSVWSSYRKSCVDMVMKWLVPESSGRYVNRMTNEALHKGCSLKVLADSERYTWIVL", "assay": "DCAF15 HiBit/LgBit luciferase assay (knock-in or ectopic, live-cell or lytic detection)", "type": "cell-based", "method": "Generation of HiBit DCAF15 knock-in cells: HEK293t WT cells at 70-80% confluency were transiently transfected in a 6 well plate with a mix of 3 ug Cas9-sgRNA vector (PX458, addgene #48138, containing sgRNA [NT]), 6 ug of single stranded oligonucleotide donor (ssOND, 20 bp homology flanking the cut site) and 3.6 ug polyethylenimine (FIGS. 10 and 12). 72 hrs post-transfection cells were sorted (SH800 Cell sorter, SONY) for GFP positive cells and recovered for 24 hrs in media. Cells were subsequently seeded at a limiting dilution to generate single clones. Clones were tested after outgrowth for HiBit expression by seeding clonal cells in a black clear bottom 384 well plate and adding Nano-Glo HiBit Lytic buffer (Promega, N3030) reconstituted with recombinant LgBit and Nano-Glo HiBit Lytic Substrate in a 1:1 ratio. HiBit-expressing clones were validated by western blotting and detection of luciferase signal (Promega, N2410) at the correct size. For live cell luciferase detection (FIGS. 11 and 13) 7000 HEK293t cells with a HiBit knock-in at the N-terminus of DCAF15 and stable ectopic expression of LgBit were seeded in 10 uL per well into a black, clear-bottom 384 well plate (Corning, #3764) and incubated over night. 20 uL of media containing 1× Endurazine (Promega, N2570) was added to each well and incubated for 1 hour followed by a baseline luciferase measurement using an EnVision plate reader (Perkin Elmer). Subsequently CSN5i-3 or an equal volume of DMSO was added in 10 uL of media to a final concentration of 500 nM in the assay volume of 40 uL. Luciferase signal was measured hourly for 24 hours. For lytic HiBit detection (FIGS. 11 and 14) 10000 cells were seeded in 10 uL per well into a black clear bottom 384 well plate. After recovery cells were treated by addition of iCSN5-3 or an equal volume of DMSO in 10 uL of media to the cells. After the indicated treatment time cells were lysed by adding 20 uL Nano-Glo HiBit Lytic buffer (Promega, N3030) reconstituted with recombinant LgBit and Nano-Glo HiBit Lytic Substrate. Luciferase signal of each well was normalized to the mean DMSO luciferase signal yielding fold-change over DMSO. Luciferase signal was detected essentially as stated for FIG. 13 with the exception that indisulam (Sigma-Aldrich, SML1225) was added together with CSN5i-3 to cells in 10 uL of media to reach the indicated final concentration (FIG. 15). Luciferase signal of each well and timepoint was normalized to the mean DMSO luciferase signal yielding fold-change over DMSO. […] Luciferase signal was detected essentially as stated for FIG. 15 with the exception that indisulam and dCEMM.1 were added together with iCSN5-3 to cells in the 10 uL treatment to a final concertation of 10 uM (FIG. 17). Luciferase signal of each well and timepoint was normalized to the mean DMSO luciferase signal yielding fold-change over DMSO."}, "[2]": {"test_system": "CRL substrate receptors (SRs) in KBM7 cells", "assay": "Global expression proteomics of substrate receptors after CSN5i-3 treatment", "type": "cell-based, human", "settings": "1 μM, 8 h, versus DMSO", "method": "In order to survey in an unbiased manner the subset of SRs undergoing autodegradation, global expression proteomics was applied to the different genetic backgrounds: WT, COPS8-mutant and CAND1-deficient KBM7 cells. In addition, expression proteomics following cellular treatment with CSN5i-3 was employed (1 μM, 8 h) (FIG. 1G-I)."}, "CRBN [3]": {"target": "T2, CRBN (Homo sapiens, UniProt Q96SW2)", "T2 construct": "endogenous in cells; host or cells: wild-type cells (KBM7 by context)", "T2 sequence (Q96SW2 whole entry)": "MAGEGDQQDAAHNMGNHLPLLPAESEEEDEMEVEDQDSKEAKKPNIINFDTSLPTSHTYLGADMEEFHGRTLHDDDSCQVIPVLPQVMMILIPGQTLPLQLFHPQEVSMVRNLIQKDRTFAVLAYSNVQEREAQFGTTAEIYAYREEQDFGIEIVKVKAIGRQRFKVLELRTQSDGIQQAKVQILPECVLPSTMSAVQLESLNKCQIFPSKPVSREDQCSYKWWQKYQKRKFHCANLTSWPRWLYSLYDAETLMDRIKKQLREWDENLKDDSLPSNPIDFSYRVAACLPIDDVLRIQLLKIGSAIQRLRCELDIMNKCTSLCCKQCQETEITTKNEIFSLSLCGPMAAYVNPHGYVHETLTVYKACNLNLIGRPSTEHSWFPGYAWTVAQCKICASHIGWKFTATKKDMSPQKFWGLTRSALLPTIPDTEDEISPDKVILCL", "assay": "Re-stabilization of CRBN by small-molecule degraders after CSN5i-3 pretreatment (western blot)", "type": "cell-based", "settings": "WT cells pretreated 2 h with DMSO, 25, 100 or 500 nM CSN5i-3, then 500 nM compound", "method": "To explore the re-stabilization of SR upon ligand treatment, WT cells were pretreated with different doses of CSN5i-3 for 2h to firstly induce SR autodegradation. As a proof of principle, the SR CRBN was used, and the autodegradation by WB was checked (FIG. 2B-D)."}, "CRBN [4]": {"target": "T2, CRBN", "assay": "Stabilization of CRBN by CC-885 pretreatment followed by CSN5i-3 (western blot)", "type": "cell-based", "settings": "125 nM CC-885 for 15 or 30 min before 100 nM CSN5i-3 for 2 hours", "method": "Cells were first pretreated with the small-molecule (CC-885) known to recruit a new substrate (GSPT1=Eukaryotic peptide chain release factor GTP-binding subunit ERF3A) to the substrate receptor CRBN of the CRL4^CRBN ligase. Pre-treatment was conducted for either 15 or 30 minutes. Afterwards, cells were treated with the CSN (COP9 signalosome) inhibitor (CNS5i-3) for 2 hours. […] This was shown in FIG. 3 by comparing lane 2 of the CRBN blot (pre-treatment with DMSO/vehicle control) to lanes 4 (15 min pre-treatment) and lane 6 (30 min pre-treatment) of the same western blot. The same blot also documents that the present invention provides for means and methods how to determine the neddylation status of cullins constituting CRLs. As evident from FIG. 3, cells comprising a normal neddylation status or a steady-state neddylation status show two bands corresponding to a non-neddylated and a neddylated cullin, respectively. Average increase of neddylated to non-neddylated approximately 9 kDa. […]"}, "CRBN [5]": {"target": "T2, CRBN", "assay": "CRBN HiBit bioluminescence assay in COPS8 knock-out cells (Example 2)", "type": "cell-based", "settings": "4 hours of compound treatment", "method": "Afterwards, CRISPR/Cas9 is used to knock-out the CSN (COP9 signalosome) subunit COPS8 (COP9 signalosome complex subunit 8). Ensuing loss of CRBN HiBit is assayed via immunoblot and loss of bioluminescence. […] After 4 hours of compound treatment, CRBNHiBit levels are assayed via bioluminescence by adding the detection reagent, which consists of a lysis buffer and recombinant LgBit protein. Within 10 minutes after addition of the detection reagent, luminescence is read with a standard plate reader, and is a proxy for drug-induced changes in CRBN levels."}},
  "note": "Entries after “also recorded” stand apart in the source; their conditions may differ.",
  "data": [
    {"compound": "Cc1ncsc1-c1ccc([C@H](C)NC(=O)[C@@H]2C[C@@H](O)CN2C(=O)[C@@H](NC(=O)COCCCOCCNC(=O)C[C@@H]2N=C(c3ccc(Cl)cc3)c3c(sc(C)c3C)-n3c(C)nnc32)C(C)(C)C)cc1", "note": "[ARV-771]", "values": [
      {"measurement": "Cytotoxic activity / sensitivity in COPS8- or CAND1-modified cells", "setting": "KBM7 cells", "result": "sensitivity to ARV-771; also recorded: do not display an altered sensitivity"}
    ]},
    {"compound": "CC(C)n1nc(C(F)F)cc1C(=O)Nc1ccc([C@H]2[C@@H](O)CCCc3cncn32)c(-c2ccccc2)c1", "note": "[CSN5i-3]", "values": [
      {"measurement": "CRBN level (western blot) after CSN5i-3", "setting": "CRBN [1]; CUL4A-deficient cells (sgRNA targeting CUL4A)", "result": "Downregulation of CRBN is rescued"},
      {"measurement": "CRBN level (western blot) after CSN5i-3", "setting": "CRBN [1]; cells lacking UBE2G1 (sgRNA), 100 nM CSN5i-3, 0, 2, 4 and 6 hours", "result": "rescued in cells treated with two sgRNAs targeting UBE2G1"},
      {"measurement": "CRBN level (western blot)", "setting": "CRBN [1]; cells treated with DMSO, MLN4924 or CSN5i-3", "result": "recapitulate CRBN downregulation; also recorded: Downregulation of CRBN is recapitulated"},
      {"measurement": "DCAF15 level (luciferase signal) after CSN5i-3", "setting": "DCAF15; live cells, HiBit-HA knock-in at DCAF15 locus, 500 nM", "result": "DCAF15 destabilization"},
      {"measurement": "DCAF15 level (luciferase signal) after CSN5i-3", "setting": "DCAF15; lytic detection, HiBit-HA knock-in at DCAF15 locus", "result": "DCAF15 destabilization"},
      {"measurement": "DCAF15 level (luciferase signal) after CSN5i-3", "setting": "DCAF15; lytic detection, ectopic overexpression of HiBit-HA-DCAF15", "result": "DCAF15 destabilization"},
      {"measurement": "CRBN abundance (expression proteomics)", "setting": "[2]", "result": "Downregulation of CRBN"},
      {"measurement": "Substrate receptors destabilized (expression proteomics)", "setting": "[2]", "result": "only affected a subset of the SRs associated to each of the cullins"}
    ]},
    {"compound": "Cc1ccc(NC(=O)NCc2ccc3c(c2)CN(C2CCC(=O)NC2=O)C3=O)cc1Cl", "note": "(stereo not drawn) [CC-885]", "values": [
      {"measurement": "Cytotoxic activity / sensitivity in COPS8- or CAND1-modified cells", "setting": "KBM7 cells", "result": "reduced activity; also recorded: lose their cytotoxic activity"},
      {"measurement": "CRBN stabilization (western blot)", "setting": "CRBN [3]", "result": "time-dependent stabilization of CRBN; also recorded: CRBN was stabilized upon CC-885 treatment in cells treated with DMSO, 25 nM, 100 nM and 500 nM CSN5i-3"},
      {"measurement": "CRBN stabilization (western blot)", "setting": "CRBN [4]", "result": "protects from CRBN auto-degradation; also recorded: CRBN was stabilized upon CC-885 treatment in the presence of CSN5i-3"}
    ]},
    {"compound": "CC(C)(C)c1cnc(CSc2cnc(NC(=O)C3CCN(CC(=O)NCCOCCOCCOCCNc4cccc5c4C(=O)N(C4CCC(=O)NC4=O)C5=O)CC3)s2)o1", "note": "(stereo not drawn) [THAL-SNS-032]", "values": [
      {"measurement": "Cytotoxic activity / sensitivity in COPS8- or CAND1-modified cells", "setting": "KBM7 cells", "result": "reduced activity"},
      {"measurement": "CRBN stabilization (western blot)", "setting": "CRBN [3]; listed as SNS-THAL-032", "result": "time-dependent stabilization of CRBN; also recorded: CRBN was stabilized upon SNS-THAL-032 treatment in cells treated with DMSO, 25 nM and 100 nM CSN5i-3"}
    ]},
    {"compound": "Cc1sc2c(c1C)C(c1ccc(Cl)cc1)=N[C@@H](CC(=O)NCCCCCCCCNC(=O)COc1cccc3c1C(=O)N(C1CCC(=O)NC1=O)C3=O)c1nnc(C)n1-2", "note": "(stereo partly drawn) [dBET6]", "values": [
      {"measurement": "CRBN HiBit levels (bioluminescence)", "setting": "CRBN [5]", "result": "quick stabilization of CRBN HiBit levels"},
      {"measurement": "Cytotoxic activity / sensitivity in COPS8- or CAND1-modified cells", "setting": "KBM7 cells", "result": "reduced activity; also recorded: lose their cytotoxic activity"},
      {"measurement": "Resistance of mutant cells in cellular viability assay", "setting": "KBM7 cells; KBM7 cells mutated in CAND1, UBE2M, COPS8, COPS7B or GPS1 versus wild type", "result": "caused resistance"},
      {"measurement": "CRBN stabilization (western blot)", "setting": "CRBN [3]", "result": "time-dependent stabilization of CRBN; also recorded: CRBN was stabilized upon dBET6 treatment in cells treated with DMSO, 25 nM and 100 nM CSN5i-3"}
    ]}
  ]
}
